Results from patent publication US6268385A, “Dry blend pharmaceutical formulations” (priority 2000, dated 2001).

Legend:
Format in all cases: physicochemical
[1] = Solubility assessment as a function of HPβCD concentration
Protocol: Solubility studies were performed by the addition of a known mass of 5(6)-methoxy-2-[[(4-methoxy-3,5-dimethyl-2-pyridinyl)-methyl]sulfinyl]-1H- benzimidazole and/or HP CD to a given volume of solvent system. Solubilities were determined by observation, as the maximum concentration at which 5(6)-methoxy-2-[[(4-methoxy-3,5-dimethyl-2-pyridinyl)-methyl]sulfinyl]-1H- benzimidazole completely dissolved. Additionally, concentrations of 5(6)-methoxy-2-[[(4-methoxy-3,5-dimethyl-2-pyridinyl)-methyl]sulfinyl]-1H- benzimidazole and HP C D at set molar ratios were solubilized in systems of high pH (adjusted as high as 12.2, with 1N NaOH), the pH was adjusted (using 2N HCl) in a stepwise downward manner until precipitation occurred.
The solubility of 5(6)-methoxy-2-[[(4-methoxy-3,5-dimethyl-2-pyridinyl)-methyl]sulfinyl]-1H- benzimidazole was assessed as a function of HPβCD concentration in water.
The procedure according to Example 86 was repeated except that water with a borate buffer (pH of 8) was employed.
The procedure according to Example 86 was repeated except that water with a phosphate buffer (pH of 11) was employed.

[2] = FT-Raman quantitation of 5-/6-methoxy isomers in omeprazole API, partial least squares
Protocol: Nicolet Instruments Corp., Madison, Wis.). The present method is conducted in three steps: preparation of standards, establishing a standard curve, and analysis of samples. Typically, a minimum of 4 to 5 standards are prepared. […] In addition to the USP standard, it is necessary to use a standard which is very low in 5-methoxy isomer concentration, preferably in pure form, one which has a high concentration of 5-methoxy isomer such as in the range of about 40%, and a series of at least two other standards distributed over the range from about 5% to about 25%. To establish the standard curve, each standard is run in at least triplicate using the step and repeat sampling device operating in the continuous mode with 15 replicates for each standard preparation and 500 scans per replicate, using a resolution of 2 cm^-1, and a laser power of about 0.7 watt, under instrumental parameters set to generate an acceptable S/N. […] Using such an algorithm, the area percent of the 6-methoxy isomer of each standard having both the 5- and 6-methoxy isomer is determined. The standard deviation for each set of replicates is less than about 0.7% and the average standard deviation for the average of all runs and replicates of a given standard is less than about 0.7% or the resulting data should be investigated. […] Correlation coefficients should be at or above about 0.98 among all standards. Each API sample is then analyzed using the method similar to that described for establishing the standards, except at least triplicate preparations with at least five replicates per sample preparation, and at least 100 scans per replicate with triplicate preparations per sample. Using the above-referenced partial least squares analysis, the percent 6-methoxy isomer, and thus the percent 5-methoxy isomer is determined for each scan and the average of the 15 spectra is calculated. The standard deviation (SD) for each set of replicates is less than about 1.0%, and the average standard deviation of all runs and replicates of a given sample is less than about 1.0%. If the standard deviation is above 1.0%, the results should be investigated. High standard deviation values are an indication of variability which may be caused by small amounts of sample burning. If this is suspected, the preparation should be run again.

[3] = FT-Raman determination of 5-/6-methoxy isomers in omeprazole API, classical least squares; settings: commercial API lots
Protocol: This method also used an FT-Raman spectrometer (Nicolet Nexus 670 with an FT-Raman accessory, 1064 nm laser, and a step and repeat sampling device). This method, too, is conducted in three stages: preparation of standards, establishing a standard curve, and analysis of samples. Typically a minimum of 4 to 5 standards are prepared. The present FT-Raman method for API and drug product analysis uses the same method set forth above to prepare and establish the standard curve, including preferred aspects, as the method set forth for the more quantitative API method relative to the number of preparations, replicates, and scans per replicate of each standard, resolution, sampling device, deconvolution of standard peaks, determination of peak area, and standard deviation for each set of replicates and the average of all runs and replicates of a given standard. […] In general, the method is performed by a ratio of a peak related to the 6-methoxy isomer (about 1627 cm^-1) to a suitable internal omeprazole band (about 1587 cm^-1). […] Correlation coefficients of the standard curve are at or above about 0.95 among all standards. […] Using the above-referenced corrected classical least squares analysis, the percent 6-methoxy isomer, and thus the percent 5-methoxy isomer, is determined for each scan, and the average of the 15 spectra is calculated.

[4] = commercial API lots, listed as 01
[5] = commercial API lots, listed as 02
[6] = commercial API lots, listed as 03

Compound: COc1ccc2[nH]c([S+]([O-])Cc3ncc(C)c(OC)c3C)nc2c1 (centres unmarked) [5(6)-methoxy-2-[[(4-methoxy-3,5-dimethyl-2-pyridinyl)-methyl]sulfinyl]-1H-benzimidazole]
- solubility as a function of HPβCD concentration ([1]; borate buffer, pH of 8): increase linearly
- solubility as a function of HPβCD concentration ([1]; phosphate buffer, pH of 11): increase linearly
- solubility as a function of HPβCD concentration ([1]; water): increase linearly

Compound: COc1ccc2nc([S+]([O-])Cc3ncc(C)c(OC)c3C)[nH]c2c1 (centres unmarked) [Example 1, 6-methoxy-2-[[(4-methoxy-3,5-dimethyl-2-pyridinyl)-methyl]sulfinyl]-1H-benzimidazole]
- % 5-isomer ([2]; standards): 5.875%
- % 6-isomer ([2]; standards): 94.125%

Compound: COc1ccc2nc([S+]([O-])Cc3ncc(C)c(OC)c3C)[nH]c2c1 (centres unmarked) [Example 1a, 6-methoxy-2-[[(4-methoxy-3,5-dimethyl-2-pyridinyl)methyl]sulfinyl]-1H-benzimidazole]
- % 5-isomer ([2]; standards): 0.000%
- % 6-isomer ([2]; standards): 100.000%

Compound: COc1ccc2[nH]c([S+]([O-])Cc3ncc(C)c(OC)c3C)nc2c1 (centres unmarked) [Example 36, (5)6-methoxy-2-[[(4-methoxy-3,5-dimethyl-2-pyridinyl)-methyl]sulfinyl]-1H-benzimidazole]
- % 5-isomer ([2]; standards): 16.005%
- % 6-isomer ([2]; standards): 83.995%

Compound: COc1ccc2[nH]c([S+]([O-])Cc3ncc(C)c(OC)c3C)nc2c1 (centres unmarked) [Example 37, (5)6-methoxy-2-[[(4-methoxy-3,5-dimethyl-2-pyridinyl)-methyl]sulfinyl]-1H-benzimidazole]
- % 5-isomer ([2]; standards): 12.246%
- % 6-isomer ([2]; standards): 87.754%

Compound: COc1ccc2[nH]c([S+]([O-])Cc3ncc(C)c(OC)c3C)nc2c1 (centres unmarked) [Example 41, (5)6-methoxy-2-[[(4-methoxy-3,5-dimethyl-2-pyridinyl)-methyl]sulfinyl]-1H-benzimidazole]
- % 5-isomer ([2]; standards): 16.414%
- % 6-isomer ([2]; standards): 83.587%

Compound: COc1ccc2[nH]c([S+]([O-])Cc3ncc(C)c(OC)c3C)nc2c1 (centres unmarked) [Example 44, (5)6-methoxy-2-[[(4-methoxy-3,5-dimethyl-2-pyridinyl)-methyl]sulfinyl]-1H-benzimidazole]
- % 5-isomer ([2]; standards): 41.258%
- % 6-isomer ([2]; standards): 58.742%

Compound: COc1ccc2[nH]c([S+]([O-])Cc3ncc(C)c(OC)c3C)nc2c1 (centres unmarked) [Lot 01]
- % 5-isomer ([3]; listed as 01): 6.14%
- % 6-isomer ([3]; listed as 01): 93.86%
- % 5-isomer [2, 4]: 7.50%
- % 6-isomer [2, 4]: 92.50%

Compound: COc1ccc2[nH]c([S+]([O-])Cc3ncc(C)c(OC)c3C)nc2c1 (centres unmarked) [Lot 02]
- % 5-isomer ([3]; listed as 02): 6.56%
- % 6-isomer ([3]; listed as 02): 93.44%
- % 5-isomer [2, 5]: 8.02%
- % 6-isomer [2, 5]: 91.98%

Compound: COc1ccc2[nH]c([S+]([O-])Cc3ncc(C)c(OC)c3C)nc2c1 (centres unmarked) [Lot 03]
- % 5-isomer ([3]; listed as 03): 6.40%
- % 6-isomer ([3]; listed as 03): 93.60%
- % 5-isomer [2, 6]: 7.61%
- % 6-isomer [2, 6]: 92.39%

Compound: COc1ccc2[nH]c([S+]([O-])Cc3ncc(C)c(OC)c3C)nc2c1 (centres unmarked) [USP]
- % 5-isomer ([2]; standards): 7.250%
- % 6-isomer ([2]; standards): 92.750%
